# Source: US11597738B2 (Mindset Pharma Inc., priority 2020, dated 2023)
# Key:
# [1] = In vivo pharmacokinetics in rats; conditions: male Sprague-Dawley rats
# Protocol: (§1) Male C57BL/6 mice (25-30 g) and male Sprague-Dawley rats (250-325 g) from Charles River Labs were acclimatized for a minimum of 5 days prior to dosing. Body weights were recorded on the day of dosing.
# (§2) Animals dosed p.o. were deprived of food overnight and fed ˜2 h following dosing.
# (§3) Formulations were administered intravenously (i.v.) via the tail vein or orally (p.o.) by gavage with disposable feeding needles.
# (§4) Serial blood samples were collected via tail snip. Terminal blood samples were collected under isoflurane anesthesia by cardiac puncture.
# (§5) All blood samples were transferred into K2EDTA tubes on wet ice and centrifuged within 5 min (3200×g for 5 min at 4° C.) to obtain plasma. Plasma was stored at −80° C. until analysis.
# (§6) Mouse or Rat Plasma, as Applicable.
# (§7) AB Sciex QTRAP 4000 or 6500 MS/MS system equipped with an LC system with a binary pump, a solvent degasser, a thermostatted column compartment and a multiplate autosampler. i. Analysis software: Phoenix® WinNonlin® 8.2 (Pharsight, Certara, Mountainview, Calif.) ii. Analysis methods: non-compartmental analysis, linear up/log down trapezoidal rule iii. PK parameters: C0, t1/2, AUC0-tlast. AUC0-∞, CL, Vss, MRT, tmax(po), Cmax(po), F, as appropriate
# [2] = In vivo pharmacokinetics in mice; conditions: male C57BL/6 mice
# Protocol: as §1, §2, §3, §4, §5, §6, §7
# [3] = test system: head-twitch response (HTR) in male C57BL6 mice; test: Mouse head twitch (HTR); format: in vivo, C57BL/6J mice; conditions: 0.3-10 mg/kg SC, measured over 1 h
# Protocol: Data is expressed as mean+SEM. The induction of head twitches elicited by 5-HT2A receptor agonists is believed to represent a behavioural proxy of their psychedelic effects.
# The effect of different doses of exemplary compounds of Formula I were evaluated on head-twitch response (HTR) as a behavior-based model of psychedelic activity.
# Male, C57BL/6J mice (body weight range 20-30 g) were dosed with the appropriate dose of test article, and following a 1-minute pre-treatment time, placed in individual observation chambers. Animals were visually assessed for the incidence head twitches continuously over a 1 hr period. Head twitches were defined as a rapid jerk of the head which was not elicited by an external tactile stimulus (Corne and Pickering, Psychopharmacologia, 1967, 11(1): 65-78). Each head twitch was individually counted by a trained observer, and the data expressed as the mean+SEM of 6-10 mice per group. Mice were used in a single experiment only.
compound,measurement,setting,value
"[2H]C([2H])([2H])N(C([2H])([2H])[2H])C([2H])([2H])C([2H])([2H])c1c[nH]c2cccc(O)c12 [Compound I-45, 3-(2-(bis(methyl-d3)amino)ethyl-1,1,2,2-d4)-1H-indol-4-ol]",AUC0-inf/Dose,"[1]; i.v., 0.3 mg/kg",181 ± 30.8 kg·ng·h/mL/mg
same,AUC0-inf/Dose,[1]; p.o.,181 ± 14.6 kg·ng·h/mL/mg
same,Cmax/Dose,"[1]; p.o., 3.0 mg/kg (title; dose row prints 10)",79.2 ± 24.4 kg·ng/mL/mg
same,AUC0-inf/Dose,"[1]; s.c., 0.3 mg/kg",120 ± 29.0 kg·ng·h/mL/mg
same,Cmax/Dose,"[1]; s.c., 0.3 mg/kg",101 ± 40.7 kg·ng/mL/mg
same,AUC(0-inf),"[1]; rat, plasma, iv, 0.3 mg/kg",117 ± 11.5 ng·h/mL
same,C0,"[1]; rat, plasma, iv, 0.3 mg/kg",76.5 ± 7.49 ng/mL
same,AUC0-inf/Dose,"[2]; i.v., 1 mg/kg",181 ± 30.8 kg·ng·h/mL/mg
same,AUC0-inf/Dose,"[2]; p.o., 10 mg/kg",79.5 ± 12.1 kg·ng·h/mL/mg
same,Cmax/Dose,"[2]; p.o., 10 mg/kg",70.4 ± 12.8 kg·ng/mL/mg
same,head twitch frequency compared to vehicle control,[3],dose dependent increase in head twitch frequency
